Entries after “also recorded” stand apart in the source; their conditions may differ.

The results in this text go back to paper PMC3920478, “Small molecule-mediated refolding and activation of myosin motor function” (eLife, 2014).

For assay [1], the system named is Dd myosin-1B, -1C, -1D, -1E motor domains. Kind of assay: Steady-state basal and actin-activated Mg2+-ATPase (NADH-coupled assay). The class given is biochemical, Dictyostelium discoideum. Here is the method:
Rabbit fast skeletal muscle heavy meromyosin (HMM) was prepared as described by [Margossian and Lowey (1982)]. Porcine β-cardiac myosin was prepared essentially as described by [Pant et al. (2009)] and [Jacques et al. (2008)] and further purified by gel filtration. S1 and HMM fragments were produced by proteolytic digestion of the full-length proteins with 0.05 mg/ml papain (10 min, 25°C) for S1 and with 0.1 mg/ml TLCK-treated α-chymotrypsin (15 min, 25°C) for HMM. Reactions were stopped with specific protease inhibitors for papain (10 µM E−64) and chymotrypsin (10 µM chymostatin, 1 mM benzamidine). Proteolytic fragments were further purified by actin-coprecipitation. Pellets were washed twice and myosin was extracted from the pellets using ATP containing buffer. Gel filtration was used to further increase purity of myosin S1 and HMM fragments. […]
Basal and actin-activated Mg^2+-ATPase activities were measured using the NADH-coupled assay described previously ([Furch et al., 1998]) adapted for higher throughput screens for a temperature controlled plate reader (Multiscan FC, Thermo Scientific, Waltham, MA) at 25°C. […]

Another assay has as its target T1, Dd myosin-2 motor domain (Dictyostelium discoideum, UniProt P08799).
T1 sequence (P08799 1-761 limits assumed): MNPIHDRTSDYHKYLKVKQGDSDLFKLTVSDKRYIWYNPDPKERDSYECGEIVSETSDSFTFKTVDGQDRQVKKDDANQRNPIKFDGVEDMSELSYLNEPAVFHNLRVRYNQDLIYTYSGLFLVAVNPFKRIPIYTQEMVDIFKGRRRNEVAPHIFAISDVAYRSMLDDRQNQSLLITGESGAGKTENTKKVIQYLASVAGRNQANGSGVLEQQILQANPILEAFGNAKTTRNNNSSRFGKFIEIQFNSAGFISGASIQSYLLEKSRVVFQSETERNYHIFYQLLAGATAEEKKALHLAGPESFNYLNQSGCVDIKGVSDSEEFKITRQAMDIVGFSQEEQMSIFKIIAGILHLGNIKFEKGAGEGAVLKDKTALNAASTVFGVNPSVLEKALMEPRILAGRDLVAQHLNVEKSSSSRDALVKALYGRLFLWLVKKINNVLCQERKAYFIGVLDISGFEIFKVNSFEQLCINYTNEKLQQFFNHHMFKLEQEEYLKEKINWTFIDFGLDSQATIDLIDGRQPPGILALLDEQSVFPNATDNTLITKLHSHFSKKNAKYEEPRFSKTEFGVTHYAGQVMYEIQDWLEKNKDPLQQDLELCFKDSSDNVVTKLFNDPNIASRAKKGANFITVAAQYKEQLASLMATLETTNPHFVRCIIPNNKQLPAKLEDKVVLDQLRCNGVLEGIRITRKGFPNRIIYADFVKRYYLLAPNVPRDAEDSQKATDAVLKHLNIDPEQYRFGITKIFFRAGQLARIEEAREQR
Kind of assay: In vitro motility assay (actin filament sliding). In kind it is biochemical. From the text: In addition, the fraction of moving filaments increased from <75% to >95%. […] In initial experiments, we determined the minimal concentration of α-actinin molecules that generate sufficient load to stall the movement of actin filaments for a given surface density of myosin heads. […] Next, we generated in vitro motility flow cells with actin filaments held at stall force. […] The time-dependence of the recovery of motile activity is best fit by a hyperbola. A plateau value of 0.4 μm s^−1 is reached after more than 2 hr (Figure 1G).
Actin-sliding motility was performed at 20°C using an Olympus IX81 (Olympus, Hamburg, Germany) inverted fluorescence microscope as described previously ([Fujita-Becker et al., 2005]). Average sliding velocities were determined from the Gaussian distribution of automatically tracked actin filaments using DiaTrack 3.01 (Semasopht, Chavannes, Switzerland) and Origin 7.0 (OriginLab Corporation, Northampton, MA). Errors indicate standard deviations.

In assay [2] the test system is neonatal rat cardiomyocytes (NRCM). In words: Neonatal rat cardiomyocytes: cell size, MHC and ANP expression at 37°C or 42°C. The class given is cell-based. The settings on record: 10 µM, 24 hr. Here is the method:
Cell culture media, fetal bovine serum (FBS), and horse serum (HS) were purchased from Biochrome (Berlin, Germany); all other chemicals were from Sigma-Aldrich (St Louis, MO). Isolation of neonatal rat cardiomyocytes (NRCM) was performed by enzymatic digestion of neonatal rat hearts as described previously ([Hilfiker-Kleiner et al., 2004]). NRCM were cultured in plating medium containing 5% FBS and 10% HS for 24 hr followed by serum-starvation for 48 hr. NRCM were cultured in serum-free medium containing either EMD (10 µM) or the corresponding volume of the solvent DMSO (1 µl/ ml) for additional 24 hr at 37°C or 42°C with 5% CO2.
For indirect immunofluorescence NRCM were fixed with 95% ethanol. Monoclonal antibodies against sarcomeric α-actinin (1:50; Sigma-Aldrich) or sarcomeric Myosin heavy chain (1:50; Santa Cruz Biotechnology, Dallas, TX) were used. Fluor-488 goat anti-mouse IgG (1:250; Jackson ImmunoResearch, West Grove, PA) or Alexa Fluor 639 goat anti-rabbit (1:250; Jackson ImmunoResearch) was employed as secondary antibody. Immunofluorescence was detected by the use of the AxioVison Rel 4.1 package (Carl Zeiss GmbH).
Realtime measurement of PCR amplification was performed using the Stratagene MX4000 multiplex QPCR System with the SYBR green dye method (Brilliant SYBR Green Mastermix-Kit, Stratagene, La Jolla, CA) as described ([Hilfiker-Kleiner et al., 2010]; [Hoch et al., 2011]). Total RNA was extracted from NRCM using Trizol reagent according to the manufactures protocol (Invitrogen, Carlsbad, CA). Reverse transcriptase (RT)-PCR was performed of ANP and b2m using 2 μg of total RNA. The primer sequences and PCR conditions are described in Table 3. PCR products were size-fractionated by 2% agarose gel electrophoresis.
Protein expression in NRCM was determined by standard immunoblotting techniques under denaturing conditions, as described previously ([Hilfiker-Kleiner et al., 2004]). A monoclonal primary antibody against sarcomeric MHC (1:1.000; Abcam, Cambridge, UK) was used and signal detection was achieved by the usage of a horseradish peroxydase-conjugated secondary antibody (GE) and ECL-detection. PonceauS staining was carried out and used as a loading control.

Turning to `COc1ccc(C(=O)N2CCCc3cc(C4=NNC(=O)SC4C)ccc32)cc1OC` (stereo not shown) [EMD 57033], the “Normalized maximal ATPase activation (basal)” value in assay [1] is recorded as “no effect”. The “Normalized maximal ATPase activation (with 30 µM actin)” value in assay [1] (30 µM actin) is recorded as “no effect”. Also, the “Increase of actin filament sliding velocity” value on Dd myosin-2 motor domain (100 µM EMD 57033) is on record as 1.6 fold. Besides, the “Average sliding velocity of actin filaments” value at Dd myosin-2 motor domain (in presence of 100 µM EMD 57033) was 1.35 ± 0.2 µm s^−1. Also, the “ANP mRNA expression” value in assay [2] (37°C) is listed as “not significantly changed; also recorded: does not affect expression of ANP mRNA”. Further, in assay [2] (37°C or 42°C), the “Total cardiac MHC protein content” value was “without significant changes in total cardiac MHC protein content; also recorded: does not significantly alter MHC protein levels”. In assay [2] (37°C, vs DMSO), the “β-cardiac MHC mRNA expression” value is given as “reduction in β-cardiac MHC transcripts; also recorded: significantly reduces”. Further, in assay [2] (42°C), the “ANP mRNA expression induced by hyperthermic stress” value is “completely suppressed; also recorded: fully suppressed” and the “β-cardiac MHC mRNA downregulation” value is “significantly more pronounced”. Also, in assay [2] (vs DMSO), the “α-cardiac MHC mRNA expression” value is “without significant changes; also recorded: does not alter α-cardiac MHC mRNA expression”.
